The nature of the experiment: Induction of GK translocation from nucleus to cytoplasm of mouse hepatocytes preincubated for 20 mins followed by glucose challenge measured after 40 mins by Hoechst 33342 staining-based assay.
For `Nc1ccc(S(=O)(=O)N2CCN(c3ncc(C(O)(C(F)(F)F)C(F)(F)F)cc3-c3cc[nH]n3)CC2)cn1`, the EC50 (in general, the concentration that produces a half-maximal response) amounted to 11200 nM. For the compound `Nc1ccc(S(=O)(=O)N2CCN(c3ncc(C(O)(C(F)(F)F)C(F)(F)F)cc3Br)CC2)cn1`, a half-maximal response (EC50) required 5370 nM. For `Nc1ccc(S(=O)(=O)N2CCN(c3ncc(C(O)(C(F)(F)F)C(F)(F)F)cc3C#CC3CC3)CC2)cn1`, a half-maximal response (EC50) required 3350 nM. In turn, `Nc1ccc(S(=O)(=O)N2CCN(c3ncc(C(O)(C(F)(F)F)C(F)(F)F)cc3C#CCO)CC2)cn1` yielded an EC50 of 510 nM. This EC50 lies about 6.6-fold lower than the previous one.

Turning to `COCC#Cc1cc(C(O)(C(F)(F)F)C(F)(F)F)cnc1N1CCN(S(=O)(=O)c2ccc(N)nc2)CC1`, the half-maximal effective concentration (EC50) was 254 nM. Compared with the last compound, the EC50 is about 2-fold lower.

Take `CC(C)(O)C#Cc1cc(C(O)(C(F)(F)F)C(F)(F)F)cnc1N1CCN(S(=O)(=O)c2ccc(N)nc2)CC1`: it took 2140 nM to reach a half-maximal effect (EC50). Next, `Nc1ccc(S(=O)(=O)N2CCN(c3ncc(C(O)(C(F)(F)F)C(F)(F)F)cc3C#CCCO)CC2)cn1`: 2000 nM; `Nc1ccc(S(=O)(=O)N2CCN(c3ncc(C(O)(C(F)(F)F)C(F)(F)F)cc3-c3ccc4[nH]ncc4c3)CC2)cn1`: 2630 nM; `Nc1ccc(S(=O)(=O)N2CCN(c3ncc(C(O)(C(F)(F)F)C(F)(F)F)cc3-c3cc4ccccc4[nH]3)CC2)cn1`: 1120 nM. `Nc1ccc(S(=O)(=O)N2CCN(c3ncc(C(O)(C(F)(F)F)C(F)(F)F)cc3-c3cc4ccccc4s3)CC2)cn1` returned an EC50 of 2750 nM. In turn, `Nc1ccc(S(=O)(=O)N2CCN(c3ccc(C(O)(C(F)(F)F)C(F)(F)F)cn3)CC2)cn1` had an EC50 greater than 12500 nM. Consider `Nc1ccc(S(=O)(=O)N2CCN(c3ncc(C(O)(C(F)(F)F)C(F)(F)F)cc3Cl)CC2)cn1`, for which the response was half-maximal at 6360 nM (EC50).

Compound `CN1C(=O)Cc2cc(-c3cc(C(O)(C(F)(F)F)C(F)(F)F)cnc3N3CCN(S(=O)(=O)c4ccc(N)nc4)CC3)ccc21` had an EC50 of 234 nM. In the case of `Nc1ccc(S(=O)(=O)N2CCN(c3ncc(C(O)(C(F)(F)F)C(F)(F)F)cc3-c3ccc4c(c3)CC(=O)N4)CC2)cn1`, the response was half-maximal at 309 nM (EC50). As for `Cc1nc2cc(-c3cc(C(O)(C(F)(F)F)C(F)(F)F)cnc3N3CCN(S(=O)(=O)c4ccc(N)nc4)CC3)ccc2o1`, the figure is 351 nM; as for `Nc1ccc(S(=O)(=O)N2CCN(c3ncc(C(O)(C(F)(F)F)C(F)(F)F)cc3-c3ccc4ocnc4c3)CC2)cn1`, 416 nM.

Turning to `Nc1ccc(S(=O)(=O)N2CCN(c3ncc(C(O)(C(F)(F)F)C(F)(F)F)cc3-c3ccc4scnc4c3)CC2)cn1`, the EC50 stood at 1150 nM. In turn, `Nc1ccc(S(=O)(=O)N2CCN(c3ncc(C(O)(C(F)(F)F)C(F)(F)F)cc3-c3ccc4sccc4c3)CC2)cn1` came in with an EC50 greater than 12500 nM. As to `COc1cncc(-c2cc(C(O)(C(F)(F)F)C(F)(F)F)cnc2N2CCN(S(=O)(=O)c3ccc(N)nc3)CC2)c1`, a half-maximal effect (EC50) was put at 1400 nM. Consider `COc1ccc(-c2cc(C(O)(C(F)(F)F)C(F)(F)F)cnc2N2CCN(S(=O)(=O)c3ccc(N)nc3)CC2)cn1`, for which the concentration for a half-maximal effect (EC50) came out at 1400 nM. Consider `Cc1ccc(-c2cc(C(O)(C(F)(F)F)C(F)(F)F)cnc2N2CCN(S(=O)(=O)c3ccc(N)nc3)CC2)cn1`, for which the concentration giving a half-maximal response (EC50) worked out at 4680 nM. As for `Cc1cncc(-c2cc(C(O)(C(F)(F)F)C(F)(F)F)cnc2N2CCN(S(=O)(=O)c3ccc(N)nc3)CC2)c1`, the figure is 794 nM; as for `Nc1ccc(S(=O)(=O)N2CCN(c3ncc(C(O)(C(F)(F)F)C(F)(F)F)cc3-c3cncc(F)c3)CC2)cn1`, greater than 12500 nM. For the compound `Nc1ccc(S(=O)(=O)N2CCN(c3ncc(C(O)(C(F)(F)F)C(F)(F)F)cc3-c3cnccc3F)CC2)cn1`, the 50% effective concentration (EC50) stood at 1290 nM. The compound `Nc1ccc(S(=O)(=O)N2CCN(c3ncc(C(O)(C(F)(F)F)C(F)(F)F)cc3-c3ccncc3)CC2)cn1` gave a 50% effective concentration (EC50) of 933 nM. The compound `CS(=O)(=O)c1ccc(-c2cc(C(O)(C(F)(F)F)C(F)(F)F)cnc2N2CCN(S(=O)(=O)c3ccc(N)nc3)CC2)cc1` returned an EC50 of 2950 nM. In turn, `NC(=O)c1cccc(-c2cc(C(O)(C(F)(F)F)C(F)(F)F)cnc2N2CCN(S(=O)(=O)c3ccc(N)nc3)CC2)c1` registered a concentration giving a half-maximal response (EC50) of 766 nM. This EC50 is about 3.9-fold lower than that of the compound before. Turning to `Nc1ccc(S(=O)(=O)N2CCN(c3ncc(C(O)(C(F)(F)F)C(F)(F)F)cc3-c3ccccc3O)CC2)cn1`, the response was half-maximal at 565 nM (EC50). Turning to `Nc1ccc(S(=O)(=O)N2CCN(c3ncc(C(O)(C(F)(F)F)C(F)(F)F)cc3-c3ccc(F)cc3)CC2)cn1`, a half-maximal response (EC50) required 1380 nM. This EC50 lies about 2.4-fold higher than the previous one. Next, `Nc1ccc(S(=O)(=O)N2CCN(c3ncc(C(O)(C(F)(F)F)C(F)(F)F)cc3-c3cccc(F)c3)CC2)cn1`: 2800 nM; `Nc1ccc(S(=O)(=O)N2CCN(c3ncc(C(O)(C(F)(F)F)C(F)(F)F)cc3-c3ccccc3F)CC2)cn1`: 803 nM. `Nc1ccc(S(=O)(=O)N2CCN(c3ncc(C(O)(C(F)(F)F)C(F)(F)F)cc3-c3ccccc3)CC2)cn1` displayed an EC50 of 776 nM. The EC50 values of the last two compounds are within 1.5-fold of each other. As for `Cc1csc(-c2cc(C(O)(C(F)(F)F)C(F)(F)F)cnc2N2CCN(S(=O)(=O)c3ccc(N)nc3)CC2)c1`, the figure is 1190 nM; as for `Nc1ccc(S(=O)(=O)N2CCN(c3ncc(C(O)(C(F)(F)F)C(F)(F)F)cc3-c3ccoc3)CC2)cn1`, 1730 nM; as for `Cc1c(-c2cc(C(O)(C(F)(F)F)C(F)(F)F)cnc2N2CCN(S(=O)(=O)c3ccc(N)nc3)CC2)cnn1C`, 1260 nM. As for `CC(C)(C)n1cc(-c2cc(C(O)(C(F)(F)F)C(F)(F)F)cnc2N2CCN(S(=O)(=O)c3ccc(N)nc3)CC2)cn1`, the response was half-maximal at 2450 nM (EC50). This EC50 lies about 1.9-fold higher than the previous one. In turn, `CC(C)n1cc(-c2cc(C(O)(C(F)(F)F)C(F)(F)F)cnc2N2CCN(S(=O)(=O)c3ccc(N)nc3)CC2)cn1` had an EC50 of 1080 nM.

Regarding `CCn1cc(-c2cc(C(O)(C(F)(F)F)C(F)(F)F)cnc2N2CCN(S(=O)(=O)c3ccc(N)nc3)CC2)cn1`, a half-maximal effect (EC50) was put at 81 nM. Take `Cn1cc(-c2cc(C(O)(C(F)(F)F)C(F)(F)F)cnc2N2CCN(S(=O)(=O)c3ccc(N)nc3)CC2)cn1`: the EC50 was determined as 52 nM.

Values taken from BindingDB's records for doi:10.1021/jm5001979 (Amgen, 2014).
